According to patent US20100003228A1, “T-CELL VACCINE” (priority 2006, published 2010):
Where no end group is shown, it is not given here.

Tests used:
[1] = test system: myelin reactive T cells in PBMCs; assay: EAA with positivity by Variance Evaluation Method or CPM Variance Method (clinical trials); format: cell-based, human; conditions: clinical trial population, RR-MS or CIS subjects
Description: The predetermined value may also be calculated using a Variance Evaluation Method as follows: • 1. EAAs may be run on a given patient population (minimum of 120 assays from 120 unique subjects) • 2. A “negative population” may be created by averaging all SI values<2.5 • 3. The Standard Deviation (SD) may be calculated for each peptide • 4. The following for each peptide may be then be calculated: • a. Average+1SD • b. Average+2SD • c. Average+3SD • 5. The following SIs may be considered above the predetermined value: • a. SI greater than or equal to the average+3SD • b. Any SI greater than or equal to 2.5
The predetermined value may also be evaluated using a Counts per Minute (CPM) Variance Method. This algorithm may set a comprehensive cutoff for all peptides within a given assay. It may be calculated as follows: • 1. EAAs may be run and the CPM for all control (media only, no antigen) wells averaged. • 2. The SD for CPM of the control wells may then be calculated. • 3. The following may then be calculated for the control wells: • a. Average+1SD • b. Average+2SD • c. Average+3SD • 4. Any peptide with an average CPM greater than or equal to the average+3SD of the control wells may be considered above the predetermined value.
Any peptide, either analyzed in an individual well or as averaged over wells run in triplicate, with an SI≧2.5, an SI≧average+3SD by the Variance Evaluation Method, or an SI≧average+3SD by the CPM variance method may be considered above the predetermined value, which may indicate a T cell(s) positive for reactivity to a peptide.
The peptides of Example 3 have been tested in 429 EAAs in clinical trials as follows. […] Pre-Vaccine EAAs have 158 positive out of 387 assays (40.8%), with Relapse Remitting MS patients (RRMS) showing 150 positive of 368 assays (40.8%), and Clinically Isolated Syndrome (CIS) patients showing 8 positive of 19 assays (42.1%).
Over the course of 6 months a study was conducted with 120 subjects meeting the criteria for the clinical trial.
The above mentioned population of subjects was evaluated by EAA using the Variance Evaluation Method and CPM Variance Method as described above, and deemed eligible for vaccine production. Of the 120 attempts to manufacture vaccine, there were 2 shipping failures (blood was not received within our stated criteria), 1 culture was lost to contamination and 5 samples arrived with low cell volume/yield. Of the remaining 112 subjects, vaccine was successfully generated in 89 subjects, with 22 still in production (98.9% of eligible samples, 92.5% of all samples completed). From this, a positive EAA was deemed predictive of the ability to manufacture a vaccine to therapeutic dose by methods disclosed herein.

myelin-reactive T cells = assay: Growth of myelin reactive T cell lines with low stimulation indices; format: cell-based, human
Description: Using the algorithms described above, statistically significant SIs as low as 1.3 have been observed and therefore should be able grow in response to antigen. To verify this ability, 5 cell lines across two patients are shown with an SI<2.0. The results are shown in Table 12 and FIG. 24, which indicate growth of these cell lines with only peptide antigen stimulation and common T cell growth factors.
PBMC for subject 1042 were run in the EAA, and […] were positive, including PLPm18 with an SI of 1.8, PLPm26 with an SI of 2.5 and PLPm28 with an SI of 2.5. […] PBMC for subject 1014 were run in the EAA, and 4 mixes were positive, including MBPm14 with an SI of 1.7, PLPm17 with an SI of 1.7, PLPm28 with an SI of 2.2 and MOGm6 with an SI of 1.9. […]
PBMCs were isolated via density gradient centrifugation from peripheral blood obtained through venipuncture into ACD-1 anticoagulant. PBMCs were plated at 2.5E+06 cells/well in 24 well plates. Antigen in the form of 16mer peptides identified in the EAA were added at a final concentration of 20 ug/ml. Interluekin-2 (IL-2) was added at a final concentration of 100 U/ml starting at 48 hours and IL-2 was added at the same concentration with each feeding or splitting of wells. Peptide restimulation in the presence of antigen presenting cells (APCs-autologous PBMCs irradiated at 3500 rad) was done at days 7, 14 and 21. Interleukin-15 (IL-15) was added at a final concentration of 5 ng/ml-20 ng/ml (lot specific) starting at day 14 and continued through the remainder of the culture period. Cells lines were all harvested by day 35 and had achieved expansions of 3.0-8.2 fold.

Substance | # of Subjects (frequency of identification) [1] | % of Subjects (frequency of identification) [1] | further results
FAVLKLMGRGTKF [PLP67] | 5 | 4.2% | 
MOGm2: mix of MOG 3 and MOG 4 (chain 1 RHPIRALVGDEVELPC; chain 2 RALVGDEVELPCRISP) | 6 | 5.0% | 
MOGm3: mix of MOG 5 and MOG 6 (chain 1 GDEVELPCRISPGKNA; chain 2 ELPCRISPGKNATGME) | 4 | 3.4% | 
MOGm4: mix of MOG 7 and MOG 8 (chain 1 RISPGKNATGMEVGWY; chain 2 GKNATXMEVGWYRPPF; X not resolved here; also: mixture of MOG 7 and MOG 8) | 3 | 2.5% | 
MOGm5: mix of MOG 9 and MOG 10 (chain 1 TGMEVGWYRPPFSRVV; chain 2 VGWYRPPFSRVVHLYR) | 8 | 6.7% | 
MOGm6: mix of MOG 11 and MOG 12 (chain 1 RPPFSRVVHLYRNGKD; chain 2 SRVVHLYRNGKDQDGD) | 4 | 3.4% | Fold Expansion (myelin-reactive T cells; subject 1014, Day 0): 1.3; Viable Cell Count, Count/well (myelin-reactive T cells; subject 1014, Day 0): 2.50E+06; Viable Cell Count, Total Cells (myelin-reactive T cells; subject 1014, Day 0): 3.00E+07; Fold Expansion (myelin-reactive T cells; subject 1014, Day 17): 0.7; Viable Cell Count, Count/well (myelin-reactive T cells; subject 1014, Day 17): 2.18E+06; Viable Cell Count, Total Cells (myelin-reactive T cells; subject 1014, Day 17): 1.96E+07; Fold Expansion (myelin-reactive T cells; subject 1014, Day 19): 1.3; Viable Cell Count, Count/well (myelin-reactive T cells; subject 1014, Day 19): 4.27E+06; Viable Cell Count, Total Cells (myelin-reactive T cells; subject 1014, Day 19): 3.84E+07; Fold Expansion (myelin-reactive T cells; subject 1014, Day 28): 4.1; Viable Cell Count, Count/well (myelin-reactive T cells; subject 1014, Day 28): 4.35E+06; Viable Cell Count, Total Cells (myelin-reactive T cells; subject 1014, Day 28): 1.22E+08; Fold Expansion (myelin-reactive T cells; subject 1014, Day 33): 4.4; Viable Cell Count, Count/well (myelin-reactive T cells; subject 1014, Day 33): 4.71E+06; Viable Cell Count, Total Cells (myelin-reactive T cells; subject 1014, Day 33): 1.32E+08; Fold Expansion (myelin-reactive T cells; subject 1014, Day 35): 3.7; Viable Cell Count, Count/well (myelin-reactive T cells; subject 1014, Day 35): 3.93E+06; Viable Cell Count, Total Cells (myelin-reactive T cells; subject 1014, Day 35): 1.10E+08
MOGm7: mix of MOG 13 and MOG 14 (chain 1 HLYRNGKDQDGDQAPE; chain 2 NGKDQDGDQAPEYRGR) | 5 | 4.2% | 
MOGm19: mix of MOG 37 and MOG 38 (chain 1 VFLCLQYRLRGKLRAE; chain 2 LQYRLRGKLRAEIENL) | 6 | 5.0% | 
MOGm20: mix of MOG 39 and MOG 40 (chain 1 LRGKLRAEIENLHRTF; chain 2 LRAEIENLHRTFDPHF) | 1 | 0.8% | 
MOGm21: mix of MOG 41 and MOG 42 (chain 1 IENLHRTFDPHFLRVP; chain 2 HRTFDPHFLRVPCWKI) | 40 | 33.6% | 
MOGm22: mix of MOG 43 and MOG 44 (chain 1 DPHFLRVPCWKITLFV; chain 2 LRVPCWKITLFVIVPV) | 2 | 1.7% | 
MOGm23: mix of MOG 45 and MOG 46 (chain 1 CWKITLFVIVPVLGPL; chain 2 TLFVIVPVLGPLVALI) | 20 | 16.8% | 
MOGm24: mix of MOG 47 and MOG 48 (chain 1 IVPVLGPLVALIICYN; chain 2 LGPLVALIICYNWLHR) | 15 | 12.6% | 
MOGm26: mix of MOG 51 and MOG 52 (chain 1 WLHRRLAGQFLEELRN; chain 2 RLAGQFLEELRNPF) | 9 | 7.6% | 
PLPm4: mix of PLP 7 and PLP 8 (chain 1 CFFGVALFCGCGHEAL; chain 2 VALFCGCGHEALTGTE) | 26 | 21.8% | 
PLPm6: mix of PLP 11 and PLP 12 (chain 1 TGTEKLIETYFSKNYQ; chain 2 KLIETYFSKNYQDYEY) | 4 | 3.4% | 
PLPm11: mix of PLP 21 and PLP 22 (chain 1 LYGALLLAEGFYTTGA; chain 2 LLLAEGFYTTGAVRQI) | 4 | 3.4% | 
PLPm12: mix of PLP 23 and PLP 24 (chain 1 EGFYTTGAVRQIFGDY; chain 2 TTGAVRQIFGDYKTTI) | 1 | 0.8% | 
PLPm13: mix of PLP 25 and PLP 26 (chain 1 VRQIFGDYKTTICGKG; chain 2 FGDYKTTICGKGLSAT) | 3 | 2.5% | 
PLPm17: mix of PLP 33 and PLP 34 (chain 1 QHQAHSLERVCHCLGK; chain 2 HSLERVCHCLGKWLGH) | 14 | 11.8% | Fold Expansion (myelin-reactive T cells; subject 1014, Day 0): 1.0; Viable Cell Count, Count/well (myelin-reactive T cells; subject 1014, Day 0): 2.50E+06; Viable Cell Count, Total Cells (myelin-reactive T cells; subject 1014, Day 0): 2.25E+07; Fold Expansion (myelin-reactive T cells; subject 1014, Day 17): 0.7; Viable Cell Count, Count/well (myelin-reactive T cells; subject 1014, Day 17): 2.34E+06; Viable Cell Count, Total Cells (myelin-reactive T cells; subject 1014, Day 17): 2.11E+07; Fold Expansion (myelin-reactive T cells; subject 1014, Day 19): 1.2; Viable Cell Count, Count/well (myelin-reactive T cells; subject 1014, Day 19): 3.85E+06; Viable Cell Count, Total Cells (myelin-reactive T cells; subject 1014, Day 19): 3.47E+07; Fold Expansion (myelin-reactive T cells; subject 1014, Day 28): 3.5; Viable Cell Count, Count/well (myelin-reactive T cells; subject 1014, Day 28): 4.77E+06; Viable Cell Count, Total Cells (myelin-reactive T cells; subject 1014, Day 28): 1.05E+08; Fold Expansion (myelin-reactive T cells; subject 1014, Day 33): 2.9; Viable Cell Count, Count/well (myelin-reactive T cells; subject 1014, Day 33): 3.89E+06; Viable Cell Count, Total Cells (myelin-reactive T cells; subject 1014, Day 33): 8.56E+07; Fold Expansion (myelin-reactive T cells; subject 1014, Day 35): 4.7; Viable Cell Count, Count/well (myelin-reactive T cells; subject 1014, Day 35): 4.73E+06; Viable Cell Count, Total Cells (myelin-reactive T cells; subject 1014, Day 35): 1.42E+08
PLPm19: mix of PLP 37 and PLP 38 (chain 1 WLGHPDKFVGITYALT; chain 2 PDKFVGITYALTVVWL) | 11 | 9.2% | 
PLPm22: mix of PLP 43 and PLP 44 (chain 1 CSAVPVYIYFNTWTTC; chain 2 PVYIYFNTWTTCQSIA) | 2 | 1.7% | 
PLPm24: mix of PLP 47 and PLP 48 (chain 1 QSIAFPSKTSASIGSL; chain 2 FPSKTSASIGSLCADA) | 7 | 5.9% | 
PLPm25: mix of PLP 49 and PLP 50 (chain 1 TSASIGSLCADARMYG; chain 2 IGSLCADARMYGVLPW) | 3 | 2.5% | 
PLPm32: mix of PLP 63 and PLP 64 (chain 1 ATLVSLLTFMIAATYN; chain 2 SLLTFMIAATYNFAVL) | 12 | 10.1% | 
